How the values were obtained:
[1] = biological target: T1, ERRα (Homo sapiens, UniProt P11474); experiment: ERRE luciferase reporter assay in HEK293 cells transfected with pcDNA3.1 ERRα; format: cell-based; design: key to EC50 (ERRα): ***<1 μM; **1-5 μM; *>5 μM; i.a. (inactive); conditions: 24 hours treatment, luciferase activity
T1 construct: expressed in transfected cells; host or cells: HEK293
T1 sequence (P11474 1-423): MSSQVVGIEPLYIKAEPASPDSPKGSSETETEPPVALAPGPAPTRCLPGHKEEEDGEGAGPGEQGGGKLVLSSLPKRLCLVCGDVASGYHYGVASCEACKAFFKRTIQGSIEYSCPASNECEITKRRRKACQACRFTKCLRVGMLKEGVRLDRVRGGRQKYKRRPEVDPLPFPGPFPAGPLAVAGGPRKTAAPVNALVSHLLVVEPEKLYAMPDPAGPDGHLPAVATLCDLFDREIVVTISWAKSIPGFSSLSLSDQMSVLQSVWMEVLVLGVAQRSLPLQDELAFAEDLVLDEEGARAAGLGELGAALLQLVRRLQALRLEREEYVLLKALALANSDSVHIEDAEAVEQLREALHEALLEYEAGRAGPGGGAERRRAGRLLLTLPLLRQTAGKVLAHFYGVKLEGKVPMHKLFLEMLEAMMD
Procedure: (§1) HEK293 cells were maintained in Dulbecco's modified Eagles medium (DMEM) supplemented with 10% fetal bovine serum at 37° C. under 5% CO2. […] Cells were transfected with ERRE reporter construct and pcDNA3.1 ERRα or ERRγ. Twenty-four-hours post-transfection, the cells were treated with vehicle or compound (various concentrations) for 24 hours (4 wells per dose). Luciferase activity was measured using the One-Glo Tox luciferase reporter assay system (Promega) and […] were calculated using GraphPad Prism software.

[2] = biological target: T2, ERRγ (Homo sapiens, UniProt P62508); experiment: ERRE luciferase reporter assay in HEK293 cells transfected with pcDNA3.1 ERRγ; format: cell-based; design: key to EC50 (ERRγ): ***<1 μM; **1-5 μM; *>5 μM; i.a. (inactive); conditions: 24 hours treatment, luciferase activity
T2 construct: expressed in transfected cells; host or cells: HEK293
T2 sequence (P62508 1-458): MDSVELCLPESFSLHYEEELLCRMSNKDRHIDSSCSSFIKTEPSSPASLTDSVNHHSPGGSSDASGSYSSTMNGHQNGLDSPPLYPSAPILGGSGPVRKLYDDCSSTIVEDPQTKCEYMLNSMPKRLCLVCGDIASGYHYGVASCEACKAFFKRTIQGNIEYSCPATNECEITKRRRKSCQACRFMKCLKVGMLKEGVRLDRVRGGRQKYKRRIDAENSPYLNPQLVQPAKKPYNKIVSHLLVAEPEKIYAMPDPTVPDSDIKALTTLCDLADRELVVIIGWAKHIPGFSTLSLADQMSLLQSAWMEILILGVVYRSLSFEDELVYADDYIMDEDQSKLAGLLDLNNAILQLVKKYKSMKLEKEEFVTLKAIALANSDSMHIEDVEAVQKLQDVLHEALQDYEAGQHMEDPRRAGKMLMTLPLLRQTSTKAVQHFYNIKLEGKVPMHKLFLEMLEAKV
Procedure: as §1

FC(F)(F)c1cc(C2=NNC(c3ccc4ccccc4c3)C2)cc(C(F)(F)F)c1 (stereo not drawn) [Entry 20, 3-(3,5-bis(trifluoromethyl)phenyl)-5-(naphthalen-2-yl)-4,5-dihydro-1H-pyrazole]
EC50 (ERRα) [1]: i.a. | EC50 (ERRγ) [2]: i.a.

Cc1ccc(O)c(C2CC(c3ccccc3)=NN2)c1 (stereo not drawn) [Entry 39, 4-Methyl-2-(3-phenyl-4,5-dihydro-1H-pyrazol-5-yl)phenol]
EC50 [1]: < 1000 nM | EC50 [2]: < 1000 nM

CCc1ccccc1C1CC(c2ccccc2O)=NN1 (stereo not drawn) [Entry 22, 2-(5-(2-Ethylphenyl)-4,5-dihydro-1H-pyrazol-3-yl)phenol]
EC50 (ERRα) [1]: i.a. | EC50 (ERRγ) [2]: i.a.

Clc1ccccc1C1=NNC(c2ccc3ccccc3c2)C1 (stereo not drawn) [Entry 101, 3-(2-chlorophenyl)-5-(naphthalen-2-yl)-4,5-dihydro-1H-pyrazole]
EC50 [1]: < 1000 nM | EC50 [2]: < 1000 nM

Oc1ccccc1C1CC(c2cccc(F)c2)=NN1 (stereo not drawn) [Entry 31, 2-(3-(3-Fluorophenyl)-4,5-dihydro-1H-pyrazol-5-yl)phenol]
EC50 [1]: 1000 to 5000 nM | EC50 [2]: > 5000 nM

Oc1cccc(C2CC(c3ccc(F)cc3)=NN2)c1 (stereo not drawn) [Entry 87, 3-(3-(4-fluorophenyl)-4,5-dihydro-1H-pyrazol-5-yl)phenol]
EC50 [1]: 1000 to 5000 nM | EC50 [2]: > 5000 nM

Oc1ccccc1C1CC(c2cc(C(F)(F)F)cc(C(F)(F)F)c2)=NN1 (stereo not drawn) [Entry 6, 2-(3-(3,5-bis(trifluoromethyl)phenyl)-4,5-dihydro-1H-pyrazol-5-yl)phenol]
EC50 (ERRα) [1]: i.a. | EC50 (ERRγ) [2]: i.a.

Oc1ccccc1C1CC(c2ccc(OC(F)(F)F)cc2)=NN1 (stereo not drawn) [Entry 41, 2-(3-(4-(Trifluoromethoxy)phenyl)-4,5-dihydro-1H-pyrazol-5-yl)phenol]
EC50 [1]: < 1000 nM | EC50 [2]: < 1000 nM

Oc1c(Br)cccc1C1CC(c2ccc(Br)cc2)=NN1 (stereo not drawn) [Entry 35, 2-Bromo-6-(3-(4-bromophenyl)-4,5-dihydro-1H-pyrazol-5-yl)phenol]
EC50 [1]: 1000 to 5000 nM | EC50 [2]: 1000 to 5000 nM

Cc1ccccc1C1=NNC(c2ccccc2O)C1 (stereo not drawn) [Entry 27, 2-(3-(o-Tolyl)-4,5-dihydro-1H-pyrazol-5-yl)phenol]
EC50 (ERRα) [1]: i.a. | EC50 (ERRγ) [2]: i.a.

Oc1ccc(C2CC(c3ccc(Cl)cc3)=NN2)cc1 (stereo not drawn) [Entry 7, 4-(3-(4-Chlorophenyl)-4,5-dihydro-1H-pyrazol-5-yl)phenol]
EC50 [1]: > 5000 nM | EC50 [2]: > 5000 nM

Oc1cccc(C2CC(c3ccccc3O)=NN2)c1 (stereo not drawn) [Entry 18, 2-(5-(3-Hydroxyphenyl)-4,5-dihydro-1H-pyrazol-3-yl)phenol]
EC50 [1]: 1000 to 5000 nM | EC50 [2]: 1000 to 5000 nM

Cc1ccc(C2CC(c3ccccc3)=NN2)c(O)c1 (stereo not drawn) [Entry 38, 5-Methyl-2-(3-phenyl-4,5-dihydro-1H-pyrazol-5-yl)phenol]
EC50 [1]: 1000 to 5000 nM | EC50 [2]: 1000 to 5000 nM

Oc1ccccc1C1=NNC(c2ccccc2)C1 (stereo not drawn) [Entry 50, 2-(5-Phenyl-4,5-dihydro-1H-pyrazol-3-yl)phenol]
EC50 [1]: < 1000 nM | EC50 [2]: 1000 to 5000 nM

Oc1ccccc1C1CC(c2cccnc2)=NN1 (stereo not drawn) [Entry 26, 2-(3-(Pyridin-3-yl)-4,5-dihydro-1H-pyrazol-5-yl)phenol]
EC50 [1]: > 5000 nM | EC50 [2]: > 5000 nM

Oc1ccc(C2=NNC(c3ccc(Br)cc3)C2)cc1 (stereo not drawn) [Entry 89, 4-(5-(4-bromophenyl)-4,5-dihydro-1H-pyrazol-3-yl)phenol]
EC50 [1]: > 5000 nM | EC50 [2]: > 5000 nM

Oc1cc(Br)ccc1C1CC(c2ccc(C(F)(F)F)cc2)=NN1 (stereo not drawn) [Entry 119, 5-bromo-2-(3-(4-(trifluoromethyl)phenyl)-4,5-dihydro-1H-pyrazol-5-yl)phenol]
EC50 (ERRα) [1]: i.a. | EC50 (ERRγ) [2]: i.a.

Oc1ccc2cc(C3CC(c4ccc(Cl)cc4)=NN3)ccc2c1 (stereo not drawn) [Entry 98, 6-(3-(4-chlorophenyl)-4,5-dihydro-1H-pyrazol-5-yl)naphthalen-2-ol]
EC50 (ERRα) [1]: i.a. | EC50 (ERRγ) [2]: i.a.

Oc1ccccc1C1CC(c2ccccc2)=NN1 (stereo not drawn) [Entry 34, 2-(3-Phenyl-4,5-dihydro-1H-pyrazol-5-yl)phenol]
EC50 [1]: > 5000 nM | EC50 [2]: 1000 to 5000 nM

Oc1ccccc1C1=NNC(c2ncc[nH]2)C1 (stereo not drawn) [Entry 92, 2-(5-(1H-imidazol-2-yl)-4,5-dihydro-1H-pyrazol-3-yl)phenol]
EC50 [1]: > 5000 nM | EC50 [2]: 1000 to 5000 nM

Oc1c(Br)cc(Br)cc1C1CC(c2cc(Br)cc(Br)c2)=NN1 (stereo not drawn) [Entry 43, 2,4-Dibromo-6-(3-(3,5-dibromophenyl)-4,5-dihydro-1H-pyrazol-5-yl)phenol]
EC50 (ERRα) [1]: i.a. | EC50 (ERRγ) [2]: i.a.

Cc1ccc(C2=NNC(c3ccccc3O)C2)cc1 (stereo not drawn) [Entry 28, 2-(3-(p-tolyl)-4,5-dihydro-1H-pyrazol-5-yl)phenol]
EC50 (ERRα) [1]: i.a. | EC50 (ERRγ) [2]: i.a.

CC(=O)N1N=C(c2ccccc2Cl)CC1c1ccccc1O (stereo not drawn) [Entry 16, 1-(3-(2-Chlorophenyl)-5-(2-hydroxyphenyl)-4,5-dihydro-1H-pyrazol-1-yl)ethan-1-one]
EC50 (ERRα) [1]: i.a. | EC50 (ERRγ) [2]: i.a.

Oc1ccc(C2CC(c3ccc(C(F)(F)F)cc3)=NN2)cc1 (stereo not drawn) [Entry 73, 4-(3-(4-(trifluoromethyl)phenyl)-4,5-dihydro-1H-pyrazol-5-yl)phenol]
EC50 [1]: 1000 to 5000 nM | EC50 [2]: 1000 to 5000 nM

Oc1ccccc1C1CC(c2cccc(Cl)c2)=NN1 (stereo not drawn) [Entry 142, 2-(3-(3-chlorophenyl)-4,5-dihydro-1H-pyrazol-5-yl)phenol]
EC50 [1]: 1000 to 5000 nM | EC50 [2]: 1000 to 5000 nM

COc1ccc(C2=NNC(c3ccccc3)C2)c(O)c1 (stereo not drawn) [Entry 52, 5-Methoxy-2-(5-phenyl-4,5-dihydro-1H-pyrazol-3-yl)phenol]
EC50 [1]: < 1000 nM | EC50 [2]: < 1000 nM

Fc1ccccc1C1=NNC(c2ccc3ccccc3c2)C1 (stereo not drawn) [Entry 106, 3-(2-fluorophenyl)-5-(naphthalen-2-yl)-4,5-dihydro-1H-pyrazole]
EC50 [1]: < 1000 nM | EC50 [2]: < 1000 nM

Oc1ccc2cc(C3CC(c4ccccc4F)=NN3)ccc2c1 (stereo not drawn) [Entry 107, 6-(3-(2-fluorophenyl)-4,5-dihydro-1H-pyrazol-5-yl)naphthalen-2-ol]
EC50 [1]: 1000 to 5000 nM | EC50 [2]: 1000 to 5000 nM

Oc1ccccc1C1=NNC(c2ccc3ccccc3c2)C1 (stereo not drawn) [Entry 21, 2-(5-(Naphthalen-2-yl)-4,5-dihydro-1H-pyrazol-3-yl)phenol]
EC50 (ERRα) [1]: i.a. | EC50 [2]: < 1000 nM

Oc1ccccc1C1CC(c2ccccc2C(F)(F)F)=NN1 (stereo not drawn) [Entry 103, 2-(3-(2-(trifluoromethyl)phenyl)-4,5-dihydro-1H-pyrazol-5-yl)phenol]
EC50 (ERRα) [1]: i.a. | EC50 (ERRγ) [2]: i.a.

FC(F)(F)c1ccc(C2=NNC(c3ccc(Br)cc3)C2)cc1 (stereo not drawn) [Entry 114, 5-(4-bromophenyl)-3-(4-(trifluoromethyl)phenyl)-4,5-dihydro-1H-pyrazole]
EC50 (ERRα) [1]: i.a. | EC50 (ERRγ) [2]: i.a.

Oc1ccccc1C1CC(c2ccc(C(F)(F)F)cc2)=NN1 (stereo not drawn) [Entry 40, 2-(3-(4-(Trifluoromethyl)phenyl)-4,5-dihydro-1H-pyrazol-5-yl)phenol]
EC50 [1]: < 1000 nM | EC50 [2]: 1000 to 5000 nM

COc1ccc(C2=NNC(c3cccc(Cl)c3O)C2)cc1 (stereo not drawn) [Entry 58, 2-chloro-6-(3-(4-methoxyphenyl)-4,5-dihydro-1H-pyrazol-5-yl)phenol]
EC50 [1]: 1000 to 5000 nM | EC50 [2]: 1000 to 5000 nM

Fc1ccccc1C1=NNC(c2ccc(Cl)c(Cl)c2)C1 (stereo not drawn) [Entry 110, 5-(3,4-dichlorophenyl)-3-(2-fluorophenyl)-4,5-dihydro-1H-pyrazole]
EC50 (ERRα) [1]: i.a. | EC50 (ERRγ) [2]: i.a.

Oc1cccc(C2=NNC(c3cccc(O)c3)C2)c1 (stereo not drawn) [Entry 3, 3,3′-(4,5-dihydro-1H-pyrazole-3,5-diyl)diphenol]
EC50 [1]: 1000 to 5000 nM | EC50 [2]: 1000 to 5000 nM

CC(=O)N1N=C(c2ccc(Br)cc2)CC1c1ccccc1O (stereo not drawn) [Entry 12, 1-(3-(4-Bromophenyl)-5-(2-hydroxyphenyl)-4,5-dihydro-1H-pyrazol-1-yl)ethan-1-one]
EC50 (ERRα) [1]: i.a. | EC50 (ERRγ) [2]: i.a.

From patent publication US20260257998A1, “ERR MODULATORS” (University of Health Sciences and Pharmacy in St. Louis, priority 2023, published 2026)
